System: Factor VII
Experiment: In vivo Factor VII silencing
Conditions: for knock down of coagulation Factor VII: as stated in the abstract, dose not printed there; for activity in decreasing Factor VII expression: nanoparticles decorated with scrambled peptide, three days post injection

| Substance | knock down of coagulation Factor VII [%] | reduction of Factor VII expression (peptide decorated nanoparticles with Factor VII siRNA, tail vein, 5 mg/kg siRNA, blood three days post-injection, n=5) [%] | activity in decreasing Factor VII expression (5 mg/kg siRNA) |
| --- | --- | --- | --- |
| CWLCRALIKRIQAMIP [compound 5] | 90 | 50 | – |
| LRGYEGHRCGILALLDLACTKHANCLPCTQPS | – | – | did not exhibit any activity |
| KRCRGWRQKMCLW | – | – | did not exhibit any activity |
| lactoferricin | 90 | – | – |
| MLRIAIRAWLCIPQCK | – | – | did not exhibit any activity |

From article PMC3898733 (ACS nano, 2013)
